Test results: patent publication US20200261421A1, “HETEROCYCLIC COMPOUNDS AS HIV PROTEASE INHIBITORS” (Merck Sharp & Dohme Corp., priority 2016, published 2020)

Biological target: T1, wild-type HIV-1 protease (Human immunodeficiency virus type 1 group M subtype B, UniProt P04585)
T1 construct: Escherichia coli expressed wild-type HIV-1 protease protein; made in house; host or cells: Escherichia coli
Assay: Assay for Inhibition of Microbial Expressed HIV Protease
Type: biochemical
Conditions: Escherichia coli expressed wild-type HIV-1 protease, peptide substrate cleavage; mean of at least two independent experiments
Method in brief: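 E. coli-expressed wild-type HIV-1 protease (20 pM) was preincubated with inhibitor for 30 min at room temperature in 50 mM sodium acetate pH 5.5, 100 mM NaCl, 0.1% BSA. It was then reacted with 400 μM peptide substrate for 1 h at 30 °C. Cleavage product was quantified by LC-MS/MS, and IC50 is the mean of at least two experiments.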

| SMILES | IC50 [nM] |
| --- | --- |
| N#Cc1ccc(CNC(=O)c2cccc(CN3C(=N)NC(c4ccc(F)cc4)(c4ccc(F)cc4)C3=O)c2)cc1 [Example 67, 3-{[4,4-bis(4-fluorophenyl)-2-imino-5-oxoimidazolidin-1-yl]methyl}-N-(4-cyanobenzyl)benzamide] | 95.2 |
| COc1ccc(CN2C(=N)NC(c3ccccc3)(c3ccccc3)C2=O)cc1C(=O)N(C)Cc1ccc(F)cc1 [Example 78, N-(4-fluorobenzyl)-5-[(2-imino-5-oxo-4,4-diphenylimidazolidin-1-yl)methyl]-2-methoxy-N-methylbenzamide] | 53.6 |
| CN(Cc1ccc(C#N)cc1)C(=O)c1cccc(CN2C(=N)NC(c3ccc(F)cc3)(c3ccc(F)cc3)C2=O)c1 [Example 13, 3-{[4,4-bis(4-fluorophenyl)-2-imino-5-oxoimidazolidin-1-yl]methyl}-N-(4-cyanobenzyl)-N-methylbenzamide] | 6.69 |
| CN(Cc1ccccc1S(C)(=O)=O)C(=O)c1cccc(CN2C(=N)NC(c3ccc(F)cc3)(c3ccc(F)cc3)C2=O)c1 [Example 52, 3-{[4,4-bis(4-fluorophenyl)-2-imino-5-oxoimidazolidin-1-yl]methyl}-N-methyl-N-[2-(methylsulfonyl)-benzyl]benzamide] | 48.3 |
| CC(C)CCC1(c2ccccc2)NC(=N)N(Cc2cccc(C(=O)N(C)Cc3ccccc3S(C)(=O)=O)c2)C1=O (stereo not shown) [Example 29, 3-{[2-imino-4-(3-methylbutyl)-5-oxo-4-phenylimidazolidin-1-yl]methyl}-N-methyl-N-[2-(methylsulfonyl)-benzyl]benzamide] | 17.8 |
| CN(Cc1ccc(C#N)cc1)C(=O)c1ccnc(CN2C(=N)NC(c3ccccc3)(c3ccccc3)C2=O)c1 [Example 85, N-(4-cyanobenzyl)-2-[(2-imino-5-oxo-4,4-diphenylimidazolidin-1-yl)methyl]-N-methylpyridine-4-carboxamide] | 5.4 |
| CN(Cc1cccc(F)c1)C(=O)c1cccc(CN2C(=N)NC(c3ccc(F)cc3)(c3ccc(F)cc3)C2=O)c1 [Example 68, 3-{[4,4-bis(4-fluorophenyl)-2-imino-5-oxoimidazolidin-1-yl]methyl}-N-(3-fluorobenzyl)-N-methylbenzamide] | 96.6 |
| CN(C)C(=O)c1cccc(CN2C(=N)NC(c3ccccc3)(c3cccc(-c4cccc(C#N)c4)c3)C2=O)c1 (stereo not shown) [Example 51, 3-{[4-(3'-cyanobiphenyl-3-yl)-2-imino-5-oxo-4-phenylimidazolidin-1-yl]methyl}-N,N-dimethylbenzamide] | 45.5 |
| N=C1NC(c2ccc(F)cc2)(c2ccc(F)cc2)C(=O)N1Cc1ccc(C(F)(F)F)c(C(=O)NCc2cnccn2)c1 [Example 4, 5-{[4,4-bis(4-fluorophenyl)-2-imino-5-oxoimidazolidin-1-yl]methyl}-N-(pyrazin-2-ylmethyl)-2-(trifluoromethyl)benzamide] | 30.9 |
| N#Cc1ccc(CNC(=O)c2cc(CN3C(=N)NC(c4ccc(F)cc4)(c4ccc(F)cc4)C3=O)ccc2C(F)(F)F)cc1 [Example 5, 5-{[4,4-bis(4-fluorophenyl)-2-imino-5-oxoimidazolidin-1-yl]methyl}-N-(4-cyanobenzyl)-2-(trifluoromethyl)benzamide] | 43 |
